# Columns and labels:
# Type in all cases: cell-based, human
# [1] = system: JEG-3 cells; assay: Viability experiments (Alamar Blue and CFDA-AM) after simulated solar radiation (SSR) exposure; conditions: SSR 16 hours
# Method: (§1) JEG-3 cells, a human placental choriocarcinoma cell line of epithelial origin, were grown and maintained at 37° C., 5% CO2 in 75 mm^2 culture flasks until a confluent monolayer was formed. Cells were then removed, washed, re-suspended, and counted on a hemocytometer, allowing for the concentration to be adjusted to 30,000 cells/mL. Aliquots of 0.2 mL of the cell solution were added into each well of a 96 well micro-plate. The cells were incubated at 37° C., 5% CO2 for 48 hours prior to treatment to allow for a confluent monolayer to form. The media was aspirated off and new media with test compounds were added at various concentrations.
# (§2) All treatments were made in MEM without FBS. The anti-oxidants were added directly to the medium. The cells were then incubated for 16 hours at 37° C./5% CO2 under simulated solar radiation (SSR) conditions, with a UVB:UVA:visible light ratio of 0.3:5.52:96 mmol m−2 s−1 (total fluence rate: 102 mmol m−2 s−1, which is about 5% of full sunlight).
# Two viability experiments were done at the end of the incubation periods (Dark or SSR exposure). Alamar Blue™ is a metabolic (primarily mitochondrial) activity indicator that requires the reducing power of the cell to transform the dye from non-fluorescent to fluorescent. Carboxy-fluorescein diacetate (CFDA-AM) is also a fluorescent dye that requires cellular esterases inside a cell to become fluorescent. The presence of an intact membrane allows the CFDA-AM to concentrate and give a higher reading than may occur outside the cell. Both dyes were combined in phosphate buffered saline with glucose (PBSG) buffer and added to the microplate wells after the media (MEM plus treatment) was removed. […] The plates were incubated for 30 minutes at 37° C./5% CO2 and were then read on a fluorimeter (PerSeptive Biosystems Cytofluor 4000) with excitation and emission, respectively, set at 530 nm and 590 nm for Alamar Blue™ and 485 nm and 530 nm for CFDA-AM. Because of the different excitation and emission wavelengths as well as little cross-reactivity, both dyes can be used simultaneously. The results were calculated as a percentage of the control value.
# [2] = system: JEG-3 cells; assay: Reactive oxygen species detection (H2DCFDA) after SSR exposure; conditions: SSR 16 hours; FIG. 4
# Method: as §1, §2
# To determine the levels of ROS generated in the cell system, another fluorescent probe, H2DCFDA, was used. After the 16-hour incubation period under SSR, the media was removed. The probe was added to PBSG in a ratio of 1 μl/ml for a final concentration of 4 nM according to manufacturer instructions. From this mixture, 200 μl/well was added and the plate read on the Cytofluor 4000 at 485 nm excitation and 530 nm emission for 4 hours with readings taken every hour. Results are stated in relative fluorescence units representing the fluorescent product, dichlorofluorescein (DCF). The results were calculated as a percentage of the dark control.
# [3] = system: JEG-3 cells; assay: Metabolic activity (Alamar Blue) after dark exposure; conditions: incubated in the dark for 24 hours; FIG. 1
# Method: Alamar Blue™ is a metabolic activity indicator that requires the reducing power of the cell to transform the dye from the non-fluorescent to the fluorescent. Decreased metabolic activity of a cell is generally associated with cell damage due to a variety of stressors.
# as §1, with “The media was aspirated off and new media with test compounds were added at various concentrations.” left out
# Two viability experiments were done at the end of the incubation periods (Dark or SSR exposure). […] The presence of an intact membrane allows the CFDA-AM to concentrate and give a higher reading than may occur outside the cell. […] The plates were incubated for 30 minutes at 37° C./5% CO2 and were then read on a fluorimeter (PerSeptive Biosystems Cytofluor 4000) with excitation and emission, respectively, set at 530 nm and 590 nm for Alamar Blue™ and 485 nm and 530 nm for CFDA-AM. […] The results were calculated as a percentage of the control value.
Structure (SMILES),protection of cell viability ([1]; 10 mM),ROS levels (DCF production) [2],protective effect on ROS compared to other antioxidants [2],metabolic activity compared to control cells [3],protection of cell viability ([1]; all concentrations)
"N[C@@H](CCC(=O)N[C@@H](CS)C(=O)NCC(=O)O)C(=O)O [GSH, glutathione]",complete protection,–,–,–,–
"CC(=O)N[C@@H](CS)C(=O)O [NAC, N-acetylcysteine]",complete protection,decreased dye levels (DCF production),superior to ascorbate but not as great as GSH,did not differ significantly from control,–
"O=C1O[C@H]([C@@H](O)CO)C(O)=C1O [ascorbate, ascorbic acid]",only partial protection,–,–,–,–
"NCCC(=O)N[C@@H](Cc1cnc[nH]1)C(=O)O [carnosine, L-carnosine]",only partial protection,did not decrease ROS levels,–,did not differ significantly from control,only provided for partial protection of cell viability
